From patent US5279811A, “Ester-substituted diaminedithiols and radiolabeled complexes thereof” (The Du Pont Merck Pharmaceutical Company, priority 1988, dated 1994)

Assay: solubility
Format: physicochemical
Details: all solvents except aqueous base

Compound: O=C(O)C(CS)NCCNC(CS)C(=O)O [N,N'-1,2-ethylenediylbis-L-cysteine]
- solubility: insoluble in all solvents except aqueous base
